Consider two compounds from patent US20090098097A1, “COMPOSITION FOR NORMALIZING BLOOD PRESSURE” (KANEKA CORPORATION, priority 2006, published 2009).

The subject of test [1] is healthy male and female volunteers. The experiment in a line: Evaluation of blood pressure normalization by reduced coenzyme Q10 in healthy subjects. The test is classed as in vivo, human. The note with it: for systolic blood pressure / diastolic blood pressure relative to before ingestion (100): 4 weeks after ingestion; for systolic blood pressure: before breakfast; for change in blood pressure after ingestion as compared to before ingestion (in words): 150 mg per day for 4 weeks. On the procedure:
Healthy male and female volunteers (20 subjects) ingested 5 soft capsules (total 150 mg) per day each containing 30 mg of reduced coenzyme Q10 (containing about 2% of oxidized coenzyme Q10), and the blood pressure before breakfast was measured before and after ingestion for 4 weeks. After the measurement, the subjects were divided into three groups of hypotension group (n=8, not more than 110 mmHg), normal blood pressure group (n=8, 110-130 mmHg) and mild hypertension group (n=4, 130-150 mmHg), according to the systolic blood pressure before ingestion, and analyzed.

The test system of the next test is healthy male volunteers. Kind of test: Evaluation of blood pressure normalization by oxidized coenzyme Q10 in healthy subjects. Format: in vivo, human. The note with it: for systolic blood pressure / diastolic blood pressure relative to before ingestion (100): 4 weeks after ingestion; for systolic blood pressure: before breakfast. How it is done: Healthy male volunteers (22 subjects) ingested soft capsule preparation containing oxidized coenzyme Q10 (150 mg) by 6 capsules (total 900 mg) per day, and the blood pressure before breakfast was measured before and after ingestion for 4 weeks. After the measurement, the subjects were divided into three groups of hypotension group (n=6, not more than 110 mmHg), normal blood pressure group (n=8, 110-130 mmHg) and mild hypertension group (n=8, 130-150 mmHg), according to the systolic blood pressure before ingestion, and analyzed. […] Consequently, a hypotension improving effect of oxidized coenzyme Q10 in healthy human subjects has been clarified.

Take `COc1c(O)c(C)c(C/C=C(\C)CC/C=C(\C)CC/C=C(\C)CC/C=C(\C)CC/C=C(\C)CC/C=C(\C)CC/C=C(\C)CC/C=C(\C)CC/C=C(\C)CCC=C(C)C)c(O)c1OC` [reduced coenzyme Q10]: the systolic blood pressure in test [1] (hypotension group (n=8, not more than 110 mmHg), 150 mg per day soft capsules, before ingestion 99.6 ± 4.9) was found to be 117.5 ± 6.2 mmHg; in test [1] (mild hypertension group (n=4, 130-150 mmHg), 150 mg per day, before ingestion 140.5 ± 9.2), 125.1 ± 6.1 mmHg; in test [1] (normal blood pressure group (n=8, 110-130 mmHg), 150 mg per day, before ingestion 125.3 ± 3.1), 125.5 ± 9.1 mmHg. Further, the “change in blood pressure after ingestion as compared to before ingestion (in words)” value in test [1] (hypotension group) is listed as “significant increase in the blood pressure”; in test [1] (mild hypertension group) it was “significant decrease in the blood pressure”; in test [1] (normal blood pressure group) it was “did not show significant variations”. In addition, the “diastolic blood pressure relative to before ingestion (100)” value is recorded as “(118**)” in test [1] (hypotension group, 150 mg per day, **p < 0.01 U-test); “(89*)” in test [1] (mild hypertension group, 150 mg per day, *p < 0.05 U-test); “(100)” in test [1] (normal blood pressure group, 150 mg per day).

Turning to `COC1=C(OC)C(=O)C(C/C=C(\C)CC/C=C(\C)CC/C=C(\C)CC/C=C(\C)CC/C=C(\C)CC/C=C(\C)CC/C=C(\C)CC/C=C(\C)CC/C=C(\C)CCC=C(C)C)=C(C)C1=O` [oxidized coenzyme Q10], the systolic blood pressure is on record as 126.5 ± 2.9 mmHg with healthy male volunteers (hypotension group (n=6, not more than 110 mmHg), 900 mg per day soft capsules, before ingestion 105.5 ± 4.4); 134.8 ± 9.4 mmHg in the test with healthy male volunteers (mild hypertension group (n=8, 130-150 mmHg), 900 mg per day, before ingestion 135.8 ± 4.6); 127.6 ± 7.7 mmHg with healthy male volunteers (normal blood pressure group (n=8, 110-130 mmHg), 900 mg per day, before ingestion 126.1 ± 2.7). Further, the “diastolic blood pressure relative to before ingestion (100)” value with healthy male volunteers (hypotension group, 900 mg per day, **p < 0.01 U-test) is “(120**)”; in the test with healthy male volunteers (mild hypertension group, 900 mg per day), “(100)”; with healthy male volunteers (normal blood pressure group, 900 mg per day) it was “(101)”. Further, in the test on healthy male volunteers (normal blood pressure group, 900 mg per day for 4 weeks), the “change in blood pressure after ingestion as compared to before ingestion (in words)” value is given as “did not show significant variations”.
